# Source: patent US8932818B2, “Screening assays for compounds that modulate programmed ribosomal frameshifting” (PTC Therapeutics, Inc., priority 2008, dated 2015)
# Test system: HIV-1 frameshift signal sequence
# Experiment: dual luciferase assay for viral programmed ribosomal frameshifting
# Type: cell-based
# Description: For example, the ability of a compound to modulate the efficiency of viral programmed ribosomal frameshifting can be validated in a dual luciferase assay comprising: (a) contacting a compound with a host cell expressing a nucleic acid construct comprising in 5′ to 3′ order: (i) a promoter sequence; (ii) the Renilla luciferase (rluc) gene; (iii) the HIV-1 frameshift signal sequence; (iv) the firefly luciferase gene (flue); and (v) a polyadenylation sequence; and (b) detecting the activity of Renilla luciferase versus that of firefly luciferase, wherein a compound that modulates the efficiency of programmed ribosomal frameshifting is validated if (i) the activity of Renilla luciferase in the presence of the compound is not changed relative to the activity of Renilla luciferase detected in the absence of the compound; and (ii) the activity of firefly luciferase detected in the presence of the compound is changed relative to the activity of firefly luciferase detected in the absence of the compound. In other words, the ratio of Renilla luciferase to firefly luciferase is changed in the presence of the compound relative to the absence of the compound.
# The ability of Compound 1 to modulate the efficiency of viral programmed ribosomal frameshifting was measured using a dual luciferase assay (as described in Biswas, et al., 2004, J. Virol. 78(4):2082-2087).
structure (smiles),measurement,setting,value
"COc1ccc2c(c1)C(=O)N(c1ccc(C(C)C)cc1)C2 [Compound 1, 2-(4-isopropylphenyl)-6-methoxyisoindolin-1-one]",modulates the efficiency of viral programmed ribosomal frameshifting,dual luciferase assay,modulates the efficiency of viral programmed ribosomal frameshifting
same,inhibition in luciferase activity relative to negative control,"relative to 0.5% DMSO, average at compound test concentration approximately 5 μM to approximately 130 μM (FIG. 1)",approximately 5 fold
